# Where two headings read alike, the source gives them in different places.
# How the values were obtained:
# [1] = target: T1, human α2C adrenergic receptor (Homo sapiens, UniProt P18825); test: Radioligand binding assay, [3H]rauwolscine competition
# T1 construct: The entire coding region of α2C (1383 bp), including 2 bp of 5′ UT and 400 bp of 3′ UT; expressed in transfected cells
# T1 sequence (P18825 1-462): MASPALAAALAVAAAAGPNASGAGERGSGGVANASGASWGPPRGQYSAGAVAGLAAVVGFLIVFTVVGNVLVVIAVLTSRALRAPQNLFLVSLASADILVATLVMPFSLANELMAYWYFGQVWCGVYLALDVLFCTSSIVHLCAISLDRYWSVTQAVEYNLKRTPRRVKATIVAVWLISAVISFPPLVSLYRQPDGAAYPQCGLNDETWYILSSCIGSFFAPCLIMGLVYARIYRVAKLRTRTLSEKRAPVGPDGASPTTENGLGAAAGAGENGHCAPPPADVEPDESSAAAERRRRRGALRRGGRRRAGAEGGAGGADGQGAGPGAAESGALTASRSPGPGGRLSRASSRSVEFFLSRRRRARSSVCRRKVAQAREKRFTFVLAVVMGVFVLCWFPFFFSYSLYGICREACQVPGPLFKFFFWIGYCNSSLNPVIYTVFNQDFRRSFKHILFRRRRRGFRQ
# [2] = target: T1, human α2C adrenergic receptor; test: Agonist activity: inhibition of forskolin-stimulated cAMP synthesis; format: cell-based; conditions: for EC50: inhibition of forskolin-stimulated cAMP, stably transfected cells expressing human α2C, read-out: pEC50 Alpha-2 C (converted); for I.A (Intrinsic Activity) Alpha-2 C: maximum activity relative to maximum activity induced by norepinephrine, human α2C
# [3] = target: T2, human α1C adrenergic receptor (Homo sapiens, UniProt P35348); test: Radioligand binding assay, [3H]prazosin competition; conditions: cloned human α1C (old nomenclature; = α1A), LM(tk-) cell membranes, read-out: pKi Alpha-1 C (converted)
# T2 construct: expressed in transfected cells
# T2 sequence (P35348 1-466): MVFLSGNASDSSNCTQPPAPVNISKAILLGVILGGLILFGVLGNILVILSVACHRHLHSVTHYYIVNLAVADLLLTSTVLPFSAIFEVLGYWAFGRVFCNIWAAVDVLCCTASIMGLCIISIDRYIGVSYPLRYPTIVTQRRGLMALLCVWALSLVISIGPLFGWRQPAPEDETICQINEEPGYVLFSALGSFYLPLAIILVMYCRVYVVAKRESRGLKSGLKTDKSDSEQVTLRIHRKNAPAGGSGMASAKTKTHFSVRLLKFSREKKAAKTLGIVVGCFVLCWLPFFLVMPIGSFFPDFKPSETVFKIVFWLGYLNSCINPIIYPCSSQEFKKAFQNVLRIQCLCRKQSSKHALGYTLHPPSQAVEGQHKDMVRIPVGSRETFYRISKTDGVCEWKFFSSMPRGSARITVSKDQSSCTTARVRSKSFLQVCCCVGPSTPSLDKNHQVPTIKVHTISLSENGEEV
# Description: Equilibrium competition binding assays were performed with membrane preparations from cultured LM(tk^−) cells stably transfected with the cloned human alpha adrenoreceptor subtypes except for α2b, which was expressed in Y-1 cells, using [^3H] prazosin for α1 receptors and [^3H] rauwolscine for α2 receptors. Further details of pharmacological evaluations of claimed compounds are described in Example 21.
# The cloned human alpha-1 adrenergic receptor subtypes referred to throughout this application as α1A, α1B, and α1C have recently been assigned new subtype designations by the IUPHAR Nomenclature Committee as outlined in the 1995 Receptor and Ion Channel Nomenclature Supplement (Watson and Girdlestone, 1995). In the new nomenclature system the cloned human α1A receptor referred to herein was given the appellation “α1D,” while the cloned human α1C receptor referred to herein was given the appellation “α1A”. However, throughout this application and the supporting tables and figures the old nomenclature will be used to describe the cloned human alpha-1 adrenergic receptor subtypes. The old nomenclature is used throughout this application because stable cell lines expressing the cloned human alpha-1 adrenergic receptors were produced and deposited with the ATCC according to the Budapest Treaty for the Deposit of Microorganisms, under designations assigned before the nomenclature change.
# The entire coding region of α1C (1401 bp), including 400 basepairs of 5′ untranslated sequence (5′ UT) and 200 p of 3′ untranslated sequences (3′ UT), was cloned into the KpnI site of the polylinker-modified pCEXV-3-derived eukaryotic expression vector, EXJ.RH. The construct involved ligation three partial overlapping fragments: a 5′ 0.6 kb HincII genomic clone, a central 1.8 EcoRI hippocampal cDNA clone, and a 3′ 0.6 Kb PstI genomic clone. The hippocampal cDNA fragment overlaps with the 5′ and 3′ genomic clones so that the HincII nad PstI sites at the 5′ and 3′ ends of the cDNA clone, respectively, were utilized for ligation. This full-length clone was cloned into the KpnI site of the expression vector, using the 5′ and 3′ KpnI sites of the fragment, derived from vector (i.e., pBluescript) and 3′-untranslated sequences, respectively. Stable cell lines were produced and selected as described above.
# Transfected cells from culture flasks were scraped into 5 mL of 5 mM Tris-HCl, 5 mM EDTA, pH 7.5, and lysed by sonication. The cell lysates were centrifuged at 1000 rpm for 5 min at 4° C., and the supernatant was centrifuged at 30,000×g for 20 min at 4° C. The pellet was suspended in 50 mM Tris-HCl, 1 mM MgCl2, and 0.1% Ascorbic acid at pH 7.5. Binding of α2 antagonist [^3H] rauwolscine ([…]) to membrane preparations of LM(tk−) cells was done in a final volume of 0.25 mL and incubated at 37° C. for 20 min. Nonspecific binding was determined in the presence of 10 μM phentolamine. The reaction was stopped by filtration through GF/B filters using a cell harvester.
# [4] = target: T3, human α1B adrenergic receptor (Homo sapiens, UniProt P35368); test: as above
# T3 construct: The entire coding region of α1B (1563 bp); expressed in transfected cells
# T3 sequence (P35368 1-520): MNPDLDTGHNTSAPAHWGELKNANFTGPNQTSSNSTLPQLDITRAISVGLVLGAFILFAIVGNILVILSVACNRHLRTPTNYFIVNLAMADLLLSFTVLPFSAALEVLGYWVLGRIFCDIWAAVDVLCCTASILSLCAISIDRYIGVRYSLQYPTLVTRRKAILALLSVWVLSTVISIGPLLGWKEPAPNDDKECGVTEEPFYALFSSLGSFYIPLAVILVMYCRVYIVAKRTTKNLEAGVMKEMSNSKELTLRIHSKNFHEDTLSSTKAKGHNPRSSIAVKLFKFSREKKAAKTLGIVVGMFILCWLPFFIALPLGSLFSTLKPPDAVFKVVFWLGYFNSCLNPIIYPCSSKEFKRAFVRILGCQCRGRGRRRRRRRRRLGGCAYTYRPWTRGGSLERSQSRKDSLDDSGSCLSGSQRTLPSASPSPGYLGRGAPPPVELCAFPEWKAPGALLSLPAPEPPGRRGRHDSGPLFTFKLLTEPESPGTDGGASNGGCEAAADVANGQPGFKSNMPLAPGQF
# [5] = cloned human α1B, LM(tk-) cell membranes, [3H]prazosin, read-out: pKi Alpha-1 B (converted)
Compound,Ki [1],EC50 [2],I.A (Intrinsic Activity) Alpha-2 C [2],Ki [3],"Ki [4, 5]",Ki [4]
"c1nc2cc(NC3=NCCN3)ccc2s1 [Example 13, 5-(2-Imidazolin-2-ylamino)benzothiazole]",20.4 nM,0.603 nM,1.00,708 nM,708 nM,–
"CC(=O)c1cc(NC2=NCCN2)cc2cc[nH]c12 [Example 6, 7-Acetyl-5-(2-imidazolin-2-ylamino)indole]",117 nM,40.7 nM,0.90,186 nM,56.2 nM,–
"N#Cc1cc(NC2=NCCN2)cc2cc[nH]c12 [Example 5, 7-Cyano-5-(2-imidazolin-2-ylamino)indole]",43.7 nM,0.589 nM,1.00,1450 nM,12600 nM,–
"Brc1cc(NC2=NCCN2)cc2cc[nH]c12 [Example 2, 7-Bromo-5-(2-imidazolin-2-ylamino)indole]",12.9 nM,0.407 nM,1.00,19.1 nM,26.9 nM,–
"c1nc2ccc(NC3=NCCS3)cc2s1 [Example 15, 6-(2-Thiazolin-2-ylamino)benzothiazole]",–,–,0.88,5750 nM,–,7240 nM
"c1nc2ccc(NC3=NCCN3)cc2s1 [Example 14, 6-(2-Imidazolin-2-ylamino)benzothiazole]",–,–,1.00,2340 nM,–,3630 nM

# Source: patent US6723741B2, “Benzimidazoles and benzothiazoles and uses thereof” (Synaptic Pharmaceutical Corporation, priority 1996, dated 2004)
